Measured values as given in PubChem BioAssay (NCI).
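Grown in 96-well plates, cells were treated for 48 hours with each compound at five concentrations. Insufficient inhibition: endpoint recorded as highest concentration tested. TGI denotes the concentration required for complete inhibition of growth.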

Columns and labels:
Assay in all cases: NCI-60 cell line screen, 48 h
SK-MEL-5 melanoma = test system: SK-MEL-5 melanoma
HT29 colon = test system: HT29 colon
UACC-257 melanoma = test system: UACC-257 melanoma
A549 NSCLC = test system: A549 NSCLC
MALME-3M melanoma = test system: MALME-3M melanoma
OVCAR-5 ovarian = test system: OVCAR-5 ovarian
HCT-15 colon = test system: HCT-15 colon
HL-60(TB) leukemia = test system: HL-60(TB) leukemia
RXF 393 renal = test system: RXF 393 renal
KM12 colon = test system: KM12 colon
OVCAR-8 ovarian = test system: OVCAR-8 ovarian
786-0 renal = test system: 786-0 renal
UACC-62 melanoma = test system: UACC-62 melanoma
SF-295 CNS = test system: SF-295 CNS
IGROV1 ovarian = test system: IGROV1 ovarian
ACHN renal = test system: ACHN renal
HS 578T breast = test system: HS 578T breast
MDA-N = test system: MDA-N
HCC-2998 colon = test system: HCC-2998 colon
SK-OV-3 ovarian = test system: SK-OV-3 ovarian

| Compound | TGI (SK-MEL-5 melanoma) [µM] | TGI (HT29 colon) [µM] | TGI (UACC-257 melanoma) [µM] | TGI (A549 NSCLC) [µM] | TGI (MALME-3M melanoma) [µM] | TGI (OVCAR-5 ovarian) [µM] | TGI (HCT-15 colon) [µM] | TGI (HL-60(TB) leukemia) [µM] | TGI (RXF 393 renal) [µM] | TGI (KM12 colon) [µM] | TGI (OVCAR-8 ovarian) [µM] | TGI (786-0 renal) [µM] | TGI (UACC-62 melanoma) [µM] | TGI (SF-295 CNS) [µM] | TGI (IGROV1 ovarian) [µM] | TGI (ACHN renal) [µM] | TGI (HS 578T breast) [µM] | TGI (MDA-N) [µM] | TGI (HCC-2998 colon) [µM] | TGI (SK-OV-3 ovarian) [µM] |
| --- | --- | --- | --- | --- | --- | --- | --- | --- | --- | --- | --- | --- | --- | --- | --- | --- | --- | --- | --- | --- |
| C[C@@H](C(=O)O)N1C(c2ccco2)=C(/C(C=O)=C\c2ccco2)C(=O)/C1=C\c1ccco1 | > 100 | > 100 | > 100 | > 100 | > 100 | > 100 | > 100 | > 100 | > 100 | > 100 | > 100 | > 100 | > 100 | > 100 | > 100 | > 100 | > 100 | > 100 | – | – |
| CC(=O)OCC1OC(N2C(C)=C(C(C)=O)C(c3ccc(Cl)cc3)C(C#N)=C2S)C(OC(C)=O)C(OC(C)=O)C1OC(C)=O (configuration not stated) | > 100 | > 100 | > 100 | > 100 | > 100 | > 100 | > 100 | > 100 | > 100 | > 100 | > 100 | > 100 | 60.6 | > 100 | > 100 | > 100 | > 100 | > 100 | > 100 | – |
| N[C@@H]1CCN(c2c(F)cc3c(=O)c(C(=O)O)cn4c3c2Oc2c-4ccc3c2ccc2ccccc23)C1 | > 100 | > 100 | > 100 | > 100 | – | > 100 | > 100 | > 100 | > 100 | > 100 | > 100 | 39.6 | > 100 | > 100 | 36.3 | 4.25 | > 100 | > 100 | 3.56 | > 100 |
| Nc1cc([N+](=O)[O-])ccc1C(=O)N1CCC[C@H]1CO | – | > 100 | > 100 | > 100 | > 100 | – | > 100 | > 100 | > 100 | > 100 | > 100 | > 100 | > 100 | > 100 | > 100 | > 100 | > 100 | > 100 | – | > 100 |
| N#Cc1c(-c2ccc(Cl)cc2)c2c(n(C3OC(CO)C(O)C(O)C3O)c1=S)CCCC2 (configuration not stated) | 80.3 | > 100 | > 100 | > 100 | > 100 | > 100 | > 100 | 58.9 | – | > 100 | > 100 | > 100 | – | > 100 | > 100 | > 100 | > 100 | > 100 | > 100 | – |
| COC(=O)C1Cc2cc3c(cc2C1=O)CCC3 (configuration not stated) | > 100 | > 100 | > 100 | > 100 | > 100 | > 100 | > 100 | > 100 | – | > 100 | > 100 | > 100 | > 100 | > 100 | > 100 | > 100 | > 100 | > 100 | > 100 | > 100 |
| CC(C)(C)C1CCC(=O)/C(=C/CC2CC(=O)N(c3ccccc3)C(=O)C2)C1 (configuration not stated) | 31.7 | 43.6 | 28.2 | – | 36.7 | 41.6 | 33.2 | 94.1 | – | 33.6 | 39.8 | 38.3 | 27.7 | > 100 | 44.5 | 42.9 | 94.5 | 66.9 | 43.5 | – |
| Cc1nc2ccc(Br)cc2c(=O)n1-c1nnc(C(C)(C)C)s1 | > 10 | > 10 | > 10 | > 10 | – | > 10 | > 10 | > 10 | > 10 | > 10 | > 10 | > 10 | > 10 | > 10 | > 10 | > 10 | > 10 | > 10 | > 10 | > 10 |
| C=CCCON(C(=O)OC(C)(C)C)c1ccccc1 | > 100 | > 100 | > 100 | > 100 | > 100 | > 100 | > 100 | > 100 | > 100 | > 100 | > 100 | > 100 | > 100 | > 100 | > 100 | > 100 | > 100 | > 100 | – | > 100 |
| O=C1/C(=C\c2ccc([N+](=O)[O-])cc2)N(S(=O)(=O)c2ccccc2)c2ncccc21 | 31.4 | 35 | 42.8 | > 100 | 33 | – | 32.3 | 5.4 | 37 | 44.3 | 70.2 | 37.1 | 26 | 75.4 | 36.8 | 31.4 | 81.3 | 45.3 | – | 19.8 |
| CC1C2CC(C(S(=O)(=O)O)C2=O)C1(C)C (configuration not stated) | – | > 100 | > 100 | – | > 100 | > 100 | – | > 100 | > 100 | > 100 | > 100 | > 100 | > 100 | > 100 | > 100 | > 100 | > 100 | > 100 | > 100 | > 100 |
| CC(=O)SCCC(NC(=S)Nc1ccccc1)P(=O)(Oc1ccccc1)Oc1ccccc1 (configuration not stated) | – | > 100 | > 100 | > 100 | > 100 | > 100 | > 100 | > 100 | > 100 | > 100 | > 100 | > 100 | > 100 | > 100 | > 100 | > 100 | > 100 | > 100 | > 100 | > 100 |
| C=C(CCOC)CCC1CCCCC(CN(C)C)C1=O (configuration not stated) | > 100 | > 100 | – | > 100 | > 100 | > 100 | > 100 | > 100 | > 100 | > 100 | > 100 | > 100 | > 100 | > 100 | > 100 | > 100 | > 100 | > 100 | > 100 | > 100 |
| CCOC(=O)c1sc(=S)n(-c2ccc(Cl)cc2)c1-n1cc(-c2ccccc2)c(C#N)c1N | 84.5 | > 100 | > 100 | 42.4 | – | > 100 | > 100 | > 100 | 64.3 | > 100 | 27.1 | 22.9 | 85.9 | 33.6 | 40.5 | 40.9 | 14.5 | > 100 | > 100 | 36 |
| O=C(O)CO[C@@]12C#C/C=C\C#C[C@@H]3N(C(=O)Oc4ccccc4)c4ccccc4[C@]14O[C@@]34CCC2 | > 100 | > 100 | > 100 | > 100 | – | – | 31.2 | > 100 | – | 60.3 | > 100 | > 100 | 26.5 | – | > 100 | > 100 | 69.4 | 34.5 | 28.7 | 19.9 |
| O=C(NC1=C(Cl)C(=O)c2ccccc2C1=O)c1ccccc1 | 78.9 | 66.1 | – | > 100 | 31.3 | > 100 | 62.6 | > 100 | 34 | > 100 | > 100 | > 100 | 90.7 | > 100 | > 100 | 40 | > 100 | 28.1 | > 100 | – |
| C#CCn1c(=O)c(I)cn(/C(=C/C(=O)OCC)C(=O)OCC)c1=O | – | 36.9 | 8.11 | 36 | 4.27 | 31.1 | 8.03 | 3.89 | 12.2 | 34.8 | 19.1 | 3.09 | 10.5 | > 59.2 | 38.3 | 3.27 | > 100 | 9.41 | – | 31.8 |
| Cc1ccc(C(=O)O)c(/C=C2\Cc3ccc(C)cc3C2=O)c1 | > 100 | > 100 | > 100 | > 100 | > 100 | > 100 | > 100 | 98.6 | > 100 | > 100 | > 100 | > 100 | > 100 | > 100 | > 100 | > 100 | > 100 | > 100 | > 100 | – |
| COc1ccc(CC2COc3cc(OC)cc(OC)c3C2=O)cc1 (configuration not stated) | 68 | 40.4 | > 100 | > 100 | 75.3 | 76.4 | > 100 | > 100 | > 100 | > 100 | 83.3 | 51.7 | > 100 | 48.3 | > 100 | > 100 | 87.3 | > 100 | – | 56.6 |
| CC12C=CC(C)(C3C(=O)C4C(C(=O)C31)C1(C)C=CC4(C)S1=O)S2=O (configuration not stated) | > 100 | > 100 | > 100 | > 100 | > 100 | > 100 | > 100 | – | > 100 | > 100 | > 100 | > 100 | > 100 | > 100 | > 100 | > 100 | > 100 | > 100 | > 100 | > 100 |
| CC(C)CCNC(=O)c1ccc(CNC(=O)/C=C/c2cccc(Oc3ccccc3)c2)cc1 | > 100 | > 100 | > 100 | > 100 | > 100 | > 100 | > 100 | – | 52 | > 100 | > 100 | 69.3 | 71.1 | > 100 | > 100 | > 100 | > 100 | 38.3 | > 100 | 98.3 |
| COc1ccc(/C=C2\N=C(N3CCCCC3)NC2=O)cc1 | – | > 100 | > 100 | > 100 | > 100 | > 100 | > 100 | > 100 | > 100 | > 100 | > 100 | > 100 | > 100 | > 100 | > 100 | > 100 | > 100 | > 100 | > 100 | > 100 |
| Cc1c(-c2ccccc2)cc(O)c2nc3ccccc3n12 | > 100 | > 100 | > 100 | > 100 | > 100 | > 100 | > 100 | > 100 | > 100 | > 100 | > 100 | > 100 | > 100 | > 100 | > 100 | > 100 | > 100 | > 100 | > 100 | – |
| Cc1ccc(C2(O)CSC(=NC34CC5CC(CC(C5)C3)C4)N2C(P(=O)(O)O)P(=O)(O)O)cc1 (configuration not stated) | – | > 100 | – | > 100 | > 100 | > 100 | > 100 | > 100 | – | > 100 | > 100 | > 100 | – | > 100 | > 100 | > 100 | > 100 | > 100 | > 100 | > 100 |
| CCCCCCCC(CC(=O)NC(CO)C(=O)NC(CO)CC(C)C)OC(=O)CC(CCCCCCC)OC(=O)CC(CCCCCCC)OC1OC(C)C(O)C(OC2OC(C)C(OC(C)=O)C(O)C2O)C1O (configuration not stated) | 21.8 | 13 | 12 | 23.8 | 23.9 | 21.7 | – | 9.2 | 16.9 | 14.3 | 23.3 | 18.5 | 19 | 24.3 | 22.5 | 29.2 | 18.7 | 14 | 17.2 | 29.8 |
